Laboratory results reported in ChEMBL document CHEMBL1938327, “Thiazolides as novel antiviral agents. 2. Inhibition of hepatitis C virus replication” (J Med Chem, 2011).
pEC50: −log10 of the molar value.

system: Hepatitis C virus; experiment: Antiviral activity against HCV genotype 1b infected in Ava5 cells assessed as inhibition of viral replication after 3 days by blot hybridization analysis; assay type: functional, organism-based, Hepacivirus hominis; conditions: Ava5, 72 h

| SMILES | pEC50 | EC90 |
| --- | --- | --- |
| Cc1cnc(NC(=O)c2ccccc2O)s1 | 5.38 | 14 µM |
| O=C(Nc1ncc(Cl)s1)c1ccccc1O | 5.00 | 10 µM |
| Cc1ccc(O)c(C(=O)Nc2ncc(Cl)s2)c1 | < 5.00 | > 10 µM |
| Cc1ccc(C(=O)Nc2ncc(Cl)s2)c(O)c1 | < 5.00 | > 10 µM |
| Cc1cccc(C(=O)Nc2ncc(Br)s2)c1O | < 5.72 | > 10 µM |
| CC(=O)Oc1ccccc1C(=O)Nc1ncc(Br)s1 | 5.42 | 11 µM |
| CC(=O)Oc1ccc(C)cc1C(=O)Nc1ncc(Br)s1 | 5.52 | 7.8 µM |
| O=C(Nc1ncc(Br)s1)c1ccccc1O | 5.31 | 10 µM |
| Cc1nc(NC(=O)c2ccccc2O)sc1Br | < 5.00 | > 10 µM |
| O=C(Nc1ncc(F)s1)c1ccccc1O | < 5.00 | > 10 µM |
| O=C(Nc1nc(-c2ccccc2)c(Br)s1)c1ccccc1O | < 5.66 | > 7 µM |
| O=C(Nc1ncc(Br)s1)c1cccc(Cl)c1O | < 5.28 | > 10 µM |
| CC(=O)Nc1cnc(NC(=O)c2ccccc2O)s1 | < 5.00 | > 10 µM |
| CS(=O)(=O)c1csc(NC(=O)c2ccccc2O)n1 | 6.30 | 1.7 µM |
| N#Cc1cnc(NC(=O)c2ccccc2O)s1 | < 5.00 | > 10 µM |
| CC(=O)Oc1ccccc1C(=O)Nc1ccc(Br)cc1 | 6.35 | 3.4 µM |
| CC(=O)Oc1ccccc1C(=O)Nc1ncc(Cl)s1 | 6.64 | 1.1 µM |

system: not listed separately; experiment: Cytotoxicity against human Ava5 cells after 3 days by neutral red dye assay; assay type: cell-based; conditions: not given

| SMILES | CC50 at 72 h |
| --- | --- |
| Cc1cnc(NC(=O)c2ccccc2O)s1 | 45 µM |
| O=C(Nc1ncc(Cl)s1)c1ccccc1O | 15 µM |
| Cc1ccc(O)c(C(=O)Nc2ncc(Cl)s2)c1 | 2.3 µM |
| Cc1ccc(C(=O)Nc2ncc(Cl)s2)c(O)c1 | 30 µM |
| Cc1cccc(C(=O)Nc2ncc(Br)s2)c1O | 15 µM |
| CC(=O)Oc1ccccc1C(=O)Nc1ncc(Br)s1 | 12 µM |
| CC(=O)Oc1ccc(C)cc1C(=O)Nc1ncc(Br)s1 | 10 µM |
| O=C(Nc1ncc(Br)s1)c1ccccc1O | 20 µM |
| Cc1nc(NC(=O)c2ccccc2O)sc1Br | 15 µM |
| O=C(Nc1ncc(F)s1)c1ccccc1O | 24 µM |
| O=C(Nc1nc(-c2ccccc2)c(Br)s1)c1ccccc1O | 16 µM |
| O=C(Nc1ncc(Br)s1)c1cccc(Cl)c1O | 10 µM |
| CC(=O)Nc1cnc(NC(=O)c2ccccc2O)s1 | 11 µM |
| CS(=O)(=O)c1csc(NC(=O)c2ccccc2O)n1 | 85 µM |
| N#Cc1cnc(NC(=O)c2ccccc2O)s1 | 15 µM |
| CC(=O)Oc1ccccc1C(=O)Nc1ccc(Br)cc1 | 0.6 µM |
| CC(=O)Oc1ccccc1C(=O)Nc1ncc(Cl)s1 | 4.3 µM |

system: not listed separately; experiment: Selectivity index, ratio of CC50 for human Ava5 cells to EC50 for HCV genotype 1b infected in human Ava5 cells; conditions: not given

| SMILES | Ratio CC50/EC50 |
| --- | --- |
| Cc1cnc(NC(=O)c2ccccc2O)s1 | 11 |
| Cc1cccc(C(=O)Nc2ncc(Br)s2)c1O | 11 |
| CC(=O)Oc1ccccc1C(=O)Nc1ncc(Br)s1 | 3 |
| CC(=O)Oc1ccc(C)cc1C(=O)Nc1ncc(Br)s1 | 3.3 |
| O=C(Nc1ncc(Br)s1)c1ccccc1O | 20 |
| O=C(Nc1nc(-c2ccccc2)c(Br)s1)c1ccccc1O | 7.3 |
| O=C(Nc1ncc(Br)s1)c1cccc(Cl)c1O | 2.7 |
| CS(=O)(=O)c1csc(NC(=O)c2ccccc2O)n1 | 170 |
| N#Cc1cnc(NC(=O)c2ccccc2O)s1 | 4.1 |
| CC(=O)Oc1ccccc1C(=O)Nc1ccc(Br)cc1 | 1.3 |
| CC(=O)Oc1ccccc1C(=O)Nc1ncc(Cl)s1 | 16 |

system: Hepatitis C virus; experiment: Antiviral activity against HCV genotype 1a infected in Huh7.5 cells assessed as inhibition of viral replication after 3 days by blot hybridization analysis; assay type: functional, organism-based, Hepacivirus hominis; conditions: subtype 1a, Huh7.5, 72 h

| SMILES | pEC50 | EC90 |
| --- | --- | --- |
| Cc1ccc(O)c(C(=O)Nc2ncc(Cl)s2)c1 | 5.00 | 10 µM |
| Cc1cccc(C(=O)Nc2ncc(Br)s2)c1O | < 5.00 | > 10 µM |
| CC(=O)Oc1ccccc1C(=O)Nc1ncc(Br)s1 | 5.48 | 10 µM |
| CC(=O)Oc1ccc(C)cc1C(=O)Nc1ncc(Br)s1 | 5.52 | 8.6 µM |
| O=C(Nc1ncc(Br)s1)c1ccccc1O | 5.55 | 9.4 µM |
| O=C(Nc1ncc(F)s1)c1ccccc1O | < 5.00 | > 10 µM |
| O=C(Nc1nc(-c2ccccc2)c(Br)s1)c1ccccc1O | < 5.00 | > 10 µM |
| O=C(Nc1ncc(Br)s1)c1cccc(Cl)c1O | < 5.00 | > 10 µM |
| N#Cc1cnc(NC(=O)c2ccccc2O)s1 | < 5.00 | > 10 µM |
| CC(=O)Oc1ccccc1C(=O)Nc1ncc(Cl)s1 | 6.40 | 1.9 µM |

system: not listed separately; experiment: Cytotoxicity against human Huh7.5 cells after 3 days by neutral red dye assay; assay type: cell-based, Huh-7; conditions: not given

| SMILES | CC50 at 72 h |
| --- | --- |
| Cc1ccc(O)c(C(=O)Nc2ncc(Cl)s2)c1 | 16 µM |
| Cc1cccc(C(=O)Nc2ncc(Br)s2)c1O | 25 µM |
| CC(=O)Oc1ccccc1C(=O)Nc1ncc(Br)s1 | 21 µM |
| CC(=O)Oc1ccc(C)cc1C(=O)Nc1ncc(Br)s1 | 11 µM |
| O=C(Nc1ncc(Br)s1)c1ccccc1O | 88 µM |
| O=C(Nc1ncc(F)s1)c1ccccc1O | 2.9 µM |
| O=C(Nc1nc(-c2ccccc2)c(Br)s1)c1ccccc1O | 62 µM |
| O=C(Nc1ncc(Br)s1)c1cccc(Cl)c1O | 11 µM |
| N#Cc1cnc(NC(=O)c2ccccc2O)s1 | 11 µM |
| CC(=O)Oc1ccccc1C(=O)Nc1ncc(Cl)s1 | 5.7 µM |

system: not listed separately; experiment: Selectivity index, ratio of CC50 for human Huh7.5 cells to EC50 for HCV genotype 1a infected in human Huh7.5 cells; design: species or system Huh-7; conditions: not given

| SMILES | Ratio CC50/EC50 |
| --- | --- |
| CC(=O)Oc1ccccc1C(=O)Nc1ncc(Br)s1 | 6 |
| CC(=O)Oc1ccc(C)cc1C(=O)Nc1ncc(Br)s1 | 3.7 |
| O=C(Nc1ncc(Br)s1)c1ccccc1O | 31.4 |
| CC(=O)Oc1ccccc1C(=O)Nc1ncc(Cl)s1 | 14 |

system: not listed separately; experiment: Toxicity in po dosed dog; assay type: organism-based, Canis lupus familiaris; conditions: in vivo

| SMILES | MTD |
| --- | --- |
| Cc1cccc(C(=O)Nc2ncc(Br)s2)c1O | < 25 mg/kg |

system: Canis familiaris; experiment: Drug metabolism in dog assessed as deactyl derivative formation at 1 mg/kg, iv after 1 hr; assay type: ADME, organism-based, Canis lupus familiaris; design: dose 1 mg/kg, route intravenous; conditions: in vivo

| SMILES | Drug metabolism |
| --- | --- |
| Cc1ccc(O)c(C(=O)Nc2ncc(Cl)s2)c1 | Active |

system: Canis familiaris; experiment: Drug metabolism in dog assessed as glucurono-conjugate formation at 1 mg/kg, iv after 2 hrs; assay type: ADME, organism-based, Canis lupus familiaris; design: dose 1 mg/kg, route intravenous; conditions: in vivo

| SMILES | Drug metabolism |
| --- | --- |
| Cc1ccc(O)c(C(=O)Nc2ncc(Cl)s2)c1 | Active |

species: Rattus norvegicus; experiment: Toxicity in rat; assay type: organism-based; conditions: in vivo

| SMILES | Activity |
| --- | --- |
| Cc1cccc(C(=O)Nc2ncc(Br)s2)c1O | Toxic |
